Data taken from patent publication US20230287234A1, “EDIBLE COATINGS FOR MAINTAINING FRUIT QUALITY” (The State of Israel, Ministry of Agriculture & Rural …, priority 2020, published 2023).
“Also recorded” adds a separate entry of the source.

How the values were obtained:
avocado fruit = experiment: Chilling injury of coated avocados stored at optimal (5° C.) and sub-optimal (2° C.) temperature; type: in vivo, 'Ettinger' avocado; settings: 21 d at 2° C. or 5° C., followed by one week at 22° C.; index 0-3
Procedure: Three series of experiments were conducted. In each experiment the coated avocados were compared with uncoated fruits. The first experiment included seven edible coating formulations: carboxymethyl cellulose (CMC) (1% w/v), methylcellulose (MC) (1% w/v), hydroxypropyl methylcellulose (HPMC) (1% w/v), chitosan (1% w/v), alginate (1% w/v), and CMC with stearic acid (CMC+SA) (1% w/v and 0.6% w/v, respectively). The second, and third experiments included five edible coating formulations including phenylalanine, chitosan, CMC+SA, chitosan with phenylalanine, and CMC+SA with phenylalanine. In experiments 1-2 each treatment group included 8 avocados kept in cardboard boxes. In these experiments the fruit were stored for 14 and 12 days respectively at 20° C. (shelf-life conditions). In experiment 3 each treatment group included 14 avocados kept in cardboard boxes. The formulations of the edible coatings were applied to the fruit using paintbrushes. […] Internal browning: Internal browning was determined by cutting each fruit for half, lengthwise, at the end of each experiment, and assessing the visual appearance of the fruit Internal browning. Internal browning was evaluated on a 0-3 scale, in which 0=no internal browning and 3=sever internal browning. […] Blackening and pitting of the skin surface, as well as internal browning, were assessed to measure chilling injury. […]

[1] = system: stem-end rot and side rot of avocado fruit; experiment: Effect of coatings with and without Phe on avocado decay (stem-end rot, side rot, total decay incidence); type: in vivo, 'Fuerte' avocado; settings: avocado stored 12 d at 22° C.
Procedure: Three series of experiments were conducted. In each experiment the coated avocados were compared with uncoated fruits. The first experiment included seven edible coating formulations: carboxymethyl cellulose (CMC) (1% w/v), methylcellulose (MC) (1% w/v), hydroxypropyl methylcellulose (HPMC) (1% w/v), chitosan (1% w/v), alginate (1% w/v), and CMC with stearic acid (CMC+SA) (1% w/v and 0.6% w/v, respectively). The second, and third experiments included five edible coating formulations including phenylalanine, chitosan, CMC+SA, chitosan with phenylalanine, and CMC+SA with phenylalanine. In experiments 1-2 each treatment group included 8 avocados kept in cardboard boxes. In these experiments the fruit were stored for 14 and 12 days respectively at 20° C. (shelf-life conditions). In experiment 3 each treatment group included 14 avocados kept in cardboard boxes. […] Determination of decay incidences: Stem end rot (SER) was determined at the end of each experiment by assessing the visual appearance of the fruit stem end. SER was evaluated on a 0-3 scale, in which zero=no SER and three=severe SER. […] Side rot (Alternaria rot and anthracnose) was evaluated at the end of each experiment on a 0-3 scale, in which zero=no side rot and three=severe rot. […] Total decay incidences were determined by calculating the percentage of decayed fruit at the end of each experiment per treatment. […]

N[C@@H](Cc1ccccc1)C(=O)O [Phe, phenylalanine]
chilling injuries symptoms (avocado fruit): reduced the appearance of chilling injuries
decay incidence and severity (stem-end rot and side rot) [1]: some effect on reducing fruit decay incidence and severity; also recorded: increased its resistance to postharvest decay
decay incidence and severity (stem-end rot and side rot) ([1]; listed as Phenylalanine): did not show clear protection effects
